Source: paper PMC10265666, “Lung SPLUNC1 Peptide Derivatives in the Lipid Membrane Headgroup Kill Gram-Negative Planktonic and Biofilm Bacteria” (Biomacromolecules, 2023)
Values joined by “and” are separate entries in the source; they are usually repeats but may differ in a detail not shown here. Identical values can stand only once. No end group written: not given here.

Assays:
[1] = Circular dichroism secondary structure in G(−)IM ULVs; type: physicochemical; conditions: 10 μM peptide, 15 mM PBS pH 7, 37 °C
Procedure: Unilamellar vesicles (ULVs) of ∼600 Å diameter were prepared using an Avanti extruder: 200 μL of 20 mg/ml G(−)IM lipid in 15 mM PBS was extruded 21 times through Nucleopore filters of size 500 Å using 0.2 mL Hamilton syringes in the Avanti extruder. The final concentration of G(−)IM lipid in the ULVs was determined gravimetrically to be 15 mg/ml. Concentrated ULVs were added to 3 mL of 10 μM peptide in 15 mM PBS at pH 7 to create lipid/peptide molar ratios between 0:1 and 70:1. The samples remained at room temperature for ∼16 h before the CD measurement. Data were collected in 3 mL quartz cuvettes using a Jasco 1500 CD spectrophotometer at 37 °C in the Center for Nucleic Acids Science and Technology at Carnegie Mellon University. The samples were scanned from 200 to 240 nm 20 times, and the ellipticity (ϵ) results were averaged. Temperature was controlled at 37 °C via a Peltier element and water circulation through the sample compartment. Nitrogen gas was used at a flow rate between 20 and 25 ft^3/h (CFH). The parameters for scanning were: speed 100 nm/min, step size 1.0 nm, response time 1 second, bandwidth 1 nm, and sensitivity of 20 mdeg. OriginPro 2019 (OriginLab, Northampton, MA) was used to carry out a linear least-squares fit of the smoothed ellipticity traces to four secondary structural motifs representing α-helix, β-sheet, β-turn, and random coil.[20] This analysis gives a percentage match of each of the secondary structural motifs to the total sample ellipticity. Data were finally converted to mean residue ellipticity, taking into account the peptide concentration (10 μMolar) and number of amino acids (N), using the equation: MRE = (10^4/N)ϵ deg cm^2/dmol.

[2] = Circular dichroism secondary structure in Euk33 ULVs; type: physicochemical; conditions: 10 μM peptide, 15 mM PBS pH 7, 37 °C
[3] = system: eukaryotic cells vs bacteria; test: Therapeutic index (eukaryotic cell kill concentration / bacterial kill concentration); type: cell-based; conditions: for concentration at which ≥90% of bacteria are killed: denominator of TI; for concentration at which ≥90% of eukaryotic cells are killed (estimated): numerator of TI
Procedure: But more important than cytotoxicity is the therapeutic index (TI), which is the concentration at which ≥90% of eukaryotic cells are killed divided by the concentration at which ≥90% of bacteria are killed. For A4-153, this TI value is an estimated ≈ 128 μM/16 μM ≈ 8. TI for A4-157 is an estimated 128 μM/24 μM ≈ 5, and the TI for A4-183 is an estimated 64 μM/20 μM ≈ 3.

[4] = system: HBE cells; type: cell-based
Procedure: (§1) page 4: Additional toxicity studies at 16 hours incubation with peptides Figure S3. Figure S4. […]

[5] = system: THP-1 cells; type: cell-based
Procedure: as §1

[6] = G(−)IM/peptide molar ratio 10:1
[7] = G(−)IM/peptide molar ratio 15:1
[8] = G(−)IM/peptide molar ratio 20:1
[9] = G(−)IM/peptide molar ratio 25:1
[10] = G(−)IM/peptide molar ratio 30:1
[11] = G(−)IM/peptide molar ratio 40:1
[12] = G(−)IM/peptide molar ratio 50:1
[13] = G(−)IM/peptide molar ratio 70:1

## CC(C)[C@H](NC(=O)CNC(=O)CNC(=O)[C@@H](NC(=O)[C@H](Cc1c[nH]c2ccccc12)NC(=O)CNC(=O)[C@H](CCCCN)NC(=O)[C@@H](NC(=O)[C@H](CCCCN)NC(=O)[C@H](CCCCN)NC(=O)[C@H](Cc1ccccc1)NC(=O)[C@H](Cc1ccccc1)NC(=O)[C@H](CCCCN)NC(=O)[C@H](CCCCN)NC(=O)[C@@H](N)Cc1ccccc1)C(C)C)C(C)C)C(=O)N[C@@H](Cc1c[nH]c2ccccc12)C(=O)NCC(=O)N[C@@H](CCCCN)C(=O)N[C@H](C(=O)N[C@@H](CCCCN)C(=O)N[C@@H](CO)C(=O)N[C@H](C(=O)N[C@H](C(=O)N[C@@H](CCCCN)C(=O)O)C(C)C)C(C)C)C(C)C (stereo in doubt) [A4-157]
[1]; G(−)IM/peptide molar ratio 0:1
  Random: 61.7%
  α-helix: 4.57%
  β-sheet: 33.6%
  β-turn: 0%
[1]; G(−)IM/peptide molar ratio 1:1
  Random: 61.7%
  α-helix: 6.9%
  β-sheet: 31.4%
  β-turn: 0%
[1]; G(−)IM/peptide molar ratio 5:1
  Random: 59.5%
  α-helix: 15.1%
  β-sheet: 25.4%
  β-turn: 0%
[1]; [6]
  Random: 52.6%
  α-helix: 19.0%
  β-sheet: 28.3%
  β-turn: 0.1%
[1]; [7]
  Random: 20.1%
  α-helix: 46.0%
  β-sheet: 33.9%
  β-turn: 0%
[1]; [8]
  Random: 26.5%
  α-helix: 49.3%
  β-sheet: 24.2%
  β-turn: 0%
[1]; [9]
  Random: 8.3%
  α-helix: 61.0%
  β-sheet: 28.5%
  β-turn: 2.2%
[1]; [10]
  Random: 8.1%
  α-helix: 62.1% and 62%
  β-sheet: 28.7%
  β-turn: 1.1%
[1]; [11]
  Random: 0%
  α-helix: 59.5%
  β-sheet: 40.5%
  β-turn: 0%
[1]; [12]
  Random: 1.0%
  α-helix: 56.4%
  β-sheet: 33.6%
  β-turn: 0%
[1]; [13]
  Random: 13.2%
  α-helix: 51.2%
  β-sheet: 35.6%
  β-turn: 0%
[2]; Euk33/peptide molar ratio 0:1
  Random: 61.7%
  α-helix: 4.57%
  β-sheet: 33.6%
  β-turn: 0%
[2]; Euk33/peptide molar ratio 5:1
  Random: 64.2%
  α-helix: 3.3%
  β-sheet: 32.5%
  β-turn: 0%
[2]; Euk33/peptide molar ratio 10:1
  Random: 64.4%
  α-helix: 7.3%
  β-sheet: 28.3%
  β-turn: 0%
[2]; Euk33/peptide molar ratio 30:1
  Random: 59.1%
  α-helix: 10%
  β-sheet: 30.9%
  β-turn: 0%
[2]; Euk33/peptide molar ratio 70:1
  Random: 42.5%
  α-helix: 7.4%
  β-sheet: 50.1%
  β-turn: 0%
[3]
  concentration at which ≥90% of bacteria are killed: 24 µM
  concentration at which ≥90% of eukaryotic cells are killed (estimated): ≈ 128 μM

## FKKFLKKFKGWLGGLWGK [A4-183]
[4]
  cytotoxicity: greatest cytotoxicity at high concentrations
[5]
  cytotoxicity: less toxic in THP-1 cells than in the other cell types
[1]; G(−)IM/peptide molar ratio 0:1
  Random: 65.9%
  α-helix: 3.1%
  β-sheet: 31.0%
  β-turn: 0%
[1]; G(−)IM/peptide molar ratio 1:1
  Random: 64.1%
  α-helix: 4.7%
  β-sheet: 31.2%
  β-turn: 0%
[1]; G(−)IM/peptide molar ratio 5:1
  Random: 59.2%
  α-helix: 22.6%
  β-sheet: 18.2%
  β-turn: 0%
[1]; [6]
  Random: 29.1%
  α-helix: 44.4%
  β-sheet: 14.9%
  β-turn: 11.6%
[1]; [7]
  Random: 0.4%
  α-helix: 63.0%
  β-sheet: 14.1%
  β-turn: 22.5%
[1]; [8]
  Random: 12.4%
  α-helix: 66.7%
  β-sheet: 8.8%
  β-turn: 12.1%
[1]; [9]
  Random: 11.7%
  α-helix: 64.9%
  β-sheet: 12.5%
  β-turn: 10.9%
[1]; [10]
  Random: 13.0%
  α-helix: 69.4%
  β-sheet: 8.7%
  β-turn: 8.9%
[1]; [12]
  Random: 18.2%
  α-helix: 63.6%
  β-sheet: 9.1%
  β-turn: 9.1%
[2]; Euk33/peptide molar ratio 0:1
  Random: 65.9%
  α-helix: 3.1%
  β-sheet: 31.0%
  β-turn: 0%
[2]; Euk33/peptide molar ratio 5:1
  Random: 64.1%
  α-helix: 8.6%
  β-sheet: 27.3%
  β-turn: 0%
[2]; Euk33/peptide molar ratio 10:1
  Random: 67.8%
  α-helix: 13.0%
  β-sheet: 19.2%
  β-turn: 0%
[2]; Euk33/peptide molar ratio 20:1
  Random: 61.2%
  α-helix: 10.4%
  β-sheet: 28.4%
  β-turn: 0%
[2]; Euk33/peptide molar ratio 30:1
  Random: 60.0%
  α-helix: 13.6% and 14%
  β-sheet: 26.4%
  β-turn: 0%
[2]; Euk33/peptide molar ratio 70:1
  Random: 37.4%
  α-helix: 12.2%
  β-sheet: 50.4%
  β-turn: 0%
[3]
  concentration at which ≥90% of bacteria are killed: 20 µM
  concentration at which ≥90% of eukaryotic cells are killed (estimated): ~64 µM
